PubChem BioAssay AID192 (DTP/NCI, 2004)
Several values for one entry are separate records, joined by “and”; a condition that tells them apart may be missing. Equal entries are not always repeated. Inconclusive results and toxic doses are left out.

System: BDF1 mice, B16 melanoma ip, median survival T/C
Test: NCI In Vivo Anticancer Drug Screen. Data for tumor model B16 Melanoma (intraperitoneal) in B6D2F1 (BDF1) mice
Settings: endpoint: median survival time, higher = longer survival
In short: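 Survival or tumor size is measured after treatment of tumor-bearing mice and normalised to the vehicle-treated control group.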

[1] = dose: 12.5 mg/kg/injection, schedule: Q01DX009 (ip), vehicle: Klucel (hydroxypropylcellulose) (HPC)
[2] = dose: 25.0 mg/kg/injection, schedule: Q04DX003 (ip), vehicle: Klucel (hydroxypropylcellulose) (HPC)
[3] = dose: 50.0 mg/kg/injection, schedule: Q01DX009 (ip), vehicle: Klucel (hydroxypropylcellulose) (HPC)
[4] = dose: 50.0 mg/kg/injection, schedule: Q04DX003 (ip), vehicle: Klucel (hydroxypropylcellulose) (HPC)
[5] = dose: 100.0 mg/kg/injection, schedule: Q01DX009 (ip), vehicle: saline with Tween-80
[6] = dose: 200.0 mg/kg/injection, schedule: Q01DX009 (ip), vehicle: saline with Tween-80
[7] = dose: 400.0 mg/kg/injection, schedule: Q01DX009 (ip), vehicle: saline with Tween-80
[8] = dose: 25.0 mg/kg/injection, schedule: Q01DX009 (ip), vehicle: saline
[9] = dose: 100.0 mg/kg/injection, schedule: Q04DX003 (ip), vehicle: saline with Tween-80
[10] = dose: 50.0 mg/kg/injection, schedule: Q01DX009 (ip), vehicle: saline
[11] = dose: 100.0 mg/kg/injection, schedule: Q01DX009 (ip), vehicle: saline
[12] = dose: 200.0 mg/kg/injection, schedule: Q01DX009 (ip), vehicle: saline
[13] = dose: 100.0 mg/kg/injection, schedule: Q01DX009 (ip), vehicle: Klucel (hydroxypropylcellulose) (HPC)
[14] = dose: 200.0 mg/kg/injection, schedule: Q01DX009 (ip), vehicle: Klucel (hydroxypropylcellulose) (HPC)
[15] = dose: 100.0 mg/kg/injection, schedule: Q04DX003 (ip), vehicle: Klucel (hydroxypropylcellulose) (HPC)
[16] = dose: 200.0 mg/kg/injection, schedule: Q04DX003 (ip), vehicle: Klucel (hydroxypropylcellulose) (HPC)

CN(C)C1CCCCC1 was tested, and the T/C [1] was 91 % of control, the T/C (dose: 12.5 mg/kg/injection, schedule: Q04DX003 (ip), vehicle: Klucel (hydroxypropylcellulose) (HPC)) was 116 % of control and the T/C [2] was 100 % of control. The T/C [3] was 100 % of control and the T/C [4] was 91 % of control.

In the case of CC1(C)c2ccccc2C(C)(C(Cl)(Cl)Cl)c2ccc(Cl)cc21 (centres undefined), the T/C (dose: 50.0 mg/kg/injection, schedule: Q01DX009 (ip), vehicle: saline with Tween-80) was 97 % of control, the T/C [5] was 103 % of control and the T/C [6] was 91 % of control. The T/C [7] was 93 % of control.

COC1N(C2CC(O)C(CO)O2)C(=O)NC(=O)C1(F)Br (centres undefined) was tested, and the T/C (dose: 1.56 mg/kg/injection, schedule: Q01DX009 (ip), vehicle: saline) was 100 % of control, the T/C (dose: 3.12 mg/kg/injection, schedule: Q01DX009 (ip), vehicle: saline) was 87 % of control and the T/C (dose: 5.0 mg/kg/injection, schedule: Q01DX009 (ip), vehicle: saline with Tween-80) was 106 % of control. The T/C (dose: 6.25 mg/kg/injection, schedule: Q01DX009 (ip), vehicle: saline) was 102 % of control, the T/C (dose: 10.0 mg/kg/injection, schedule: Q01DX009 (ip), vehicle: saline with Tween-80) was 109 % of control and the T/C (dose: 12.5 mg/kg/injection, schedule: Q01DX009 (ip), vehicle: saline) was 108 % of control. The T/C (dose: 20.0 mg/kg/injection, schedule: Q01DX009 (ip), vehicle: saline with Tween-80) was 104 % of control and the T/C [8] was 88 % of control.

For N#CC1CS(=O)(=O)C1, the T/C (dose: 25.0 mg/kg/injection, schedule: Q04DX003 (ip), vehicle: saline with Tween-80) was 104 % of control, the T/C (dose: 50.0 mg/kg/injection, schedule: Q04DX003 (ip), vehicle: saline with Tween-80) was 98 % of control and the T/C [9] was 99 % of control and 113 % of control.

C1CCNCC1 was tested, and the T/C [8] was 100 % of control, the T/C [10] was 102 % of control and the T/C [11] was 107 % of control. The T/C [12] was 102 % of control.

CC(=O)CC(=O)Nc1cc(Cl)c(NC(=O)CC(C)=O)cc1Cl was tested, and the T/C [9] was 88 % of control and the T/C (dose: 200.0 mg/kg/injection, schedule: Q04DX003 (ip), vehicle: saline with Tween-80) was 98 % of control.

For COC1C=COC2(C)Oc3c(C)c(O)c4c(c3C2=O)/C(=N/C2CCC(O)OC2C)C=C(NC(=O)/C(C)=C\C(=O)C2CC2C(O)C(C)C(O)C(C)C(OC(C)=O)C1C)C4=O (centres undefined), the T/C (dose: 4.6 mg/kg/injection, schedule: Q01DX009 (ip), vehicle: saline with Tween-80) was 98 % of control and the T/C (dose: 18.5 mg/kg/injection, schedule: Q01DX009 (ip), vehicle: saline with Tween-80) was 97 % of control.

With CCO/C=C1\SC(=S)N(c2ccco2)C1=O the T/C [8] was 111 % of control, the T/C (dose: 25.0 mg/kg/injection, schedule: Q04DX003 (ip), vehicle: saline) was 116 % of control and the T/C [10] was 98 % of control. For the same compound, the T/C (dose: 50.0 mg/kg/injection, schedule: Q04DX003 (ip), vehicle: saline) was 105 % of control, the T/C [11] was 117 % of control and the T/C (dose: 100.0 mg/kg/injection, schedule: Q04DX003 (ip), vehicle: saline) was 116 % of control. For the same compound, the T/C (dose: 200.0 mg/kg/injection, schedule: Q04DX003 (ip), vehicle: saline) was 102 % of control.

CN(C)CCCN1c2ccccc2Sc2ccc(C(F)(F)F)cc21 was tested, and the T/C (dose: 0.06 mg/kg/injection, schedule: Q01DX009 (ip), vehicle: saline) was 89 % of control, the T/C (dose: 0.25 mg/kg/injection, schedule: Q01DX009 (ip), vehicle: saline) was 97 % of control and the T/C (dose: 0.5 mg/kg/injection, schedule: Q01DX009 (ip), vehicle: saline) was 109 % of control. The T/C (dose: 2.0 mg/kg/injection, schedule: Q01DX009 (ip), vehicle: saline) was 104 % of control and the T/C (dose: 8.0 mg/kg/injection, schedule: Q01DX009 (ip), vehicle: saline) was 109 % of control.

In the case of Cc1c(Cl)cccc1NC(=O)c1ccccc1C(=O)O, the T/C [13] was 100 % of control and the T/C [14] was 102 % of control.

Cc1ccc(S(=O)(=O)N(CCO)CC(C)O)cc1 (centres undefined) was tested, and the T/C [15] was 105 % of control, the T/C [16] was 94 % of control and the T/C (dose: 400.0 mg/kg/injection, schedule: Q04DX003 (ip), vehicle: Klucel (hydroxypropylcellulose) (HPC)) was 100 % of control.

In the case of O=C(O)CCC(NC(=O)OCc1ccccc1)C(=O)OCc1ccccc1 (centres undefined), the T/C [3] was 86 % of control, the T/C [13] was 86 % of control and the T/C [14] was 96 % of control.

With CC(=O)OC1C2(CC3N4C(=O)C5(CO)SSC4(CC31O)C(=O)N5C)OC(C)C(C)(C)C2=O (centres undefined) the T/C (dose: 0.08 mg/kg/injection, schedule: Q01DX009 (ip), vehicle: saline with Tween-80) was 96 % of control, the T/C (dose: 0.16 mg/kg/injection, schedule: Q01DX009 (ip), vehicle: saline with Tween-80) was 101 % of control and the T/C (dose: 0.3 mg/kg/injection, schedule: Q01DX009 (ip), vehicle: saline with Tween-80) was 88 % of control. For the same compound, the T/C (dose: 0.6 mg/kg/injection, schedule: Q01DX009 (ip), vehicle: saline with Tween-80) was 98 % of control.

Cc1cc2nc(-c3ccccc3O)[nH]c2cc1C was tested, and the T/C [13] was 93 % of control and 94 % of control and the T/C [14] was 94 % of control and 106 % of control.

In the case of CC(CO)NC(=O)C1C=C2c3cccc4[nH]cc(c34)CC2N(C)C1 (centres undefined), the T/C [8] was 91 % of control, the T/C [10] was 91 % of control and the T/C [12] was 86 % of control.

For CC(Br)C1(c2cccc([N+](=O)[O-])c2)OCCO1 (centres undefined), the T/C [2] was 94 % of control and the T/C [4] was 92 % of control.

With CCOC(CCC#N)c1ccc(Cl)cc1 (centres undefined) the T/C [5] was 98 % of control, the T/C [6] was 96 % of control and the T/C [7] was 97 % of control.

In the case of CCN(CC)CCOc1cc(C)ccc1C(C)C, the T/C [3] was 111 % of control, the T/C [4] was 95 % of control and the T/C [15] was 97 % of control. The T/C [16] was 86 % of control.

In the case of COc1cc(C=Nc2cccc(Br)c2)ccc1N(CCCl)CCCl, the T/C (dose: 0.8 mg/kg/injection, schedule: Q01DX009 (ip), vehicle: saline with Tween-80) was 113 % of control, the T/C (dose: 1.56 mg/kg/injection, schedule: Q01DX009 (ip), vehicle: Klucel (hydroxypropylcellulose) (HPC)) was 113 % of control and the T/C (dose: 3.12 mg/kg/injection, schedule: Q01DX009 (ip), vehicle: Klucel (hydroxypropylcellulose) (HPC)) was 115 % of control. For the same compound, the T/C (dose: 6.25 mg/kg/injection, schedule: Q01DX009 (ip), vehicle: saline with Tween-80) was 164 % of control, the T/C [1] was 163 % of control and the T/C (dose: 12.5 mg/kg/injection, schedule: Q01DX009 (ip), vehicle: saline with Tween-80) was 158 % of control.

For CCNCc1cc(Nc2nc(NC3CCC(N(C)C)CC3)c3ccccc3n2)ccc1OC (centres undefined), the T/C (dose: 2.5 mg/kg/injection, schedule: Q01DX009 (ip), vehicle: saline) was 105 % of control, the T/C (dose: 5.0 mg/kg/injection, schedule: Q01DX009 (ip), vehicle: saline) was 103 % of control and the T/C (dose: 10.0 mg/kg/injection, schedule: Q01DX009 (ip), vehicle: saline) was 114 % of control. For the same compound, the T/C (dose: 20.0 mg/kg/injection, schedule: Q01DX009 (ip), vehicle: saline) was 122 % of control and the T/C (dose: 40.0 mg/kg/injection, schedule: Q01DX009 (ip), vehicle: saline) was 112 % of control.

CCC1(C)CC(=O)NC(=O)C1 was tested, and the T/C (dose: 0.93 mg/kg/injection, schedule: Q01DX009 (ip), vehicle: saline) was 110 % of control, the T/C (dose: 1.87 mg/kg/injection, schedule: Q01DX009 (ip), vehicle: saline) was 97 % of control and the T/C (dose: 3.75 mg/kg/injection, schedule: Q01DX009 (ip), vehicle: saline) was 110 % of control. For the same compound, the T/C (dose: 7.5 mg/kg/injection, schedule: Q01DX009 (ip), vehicle: saline) was 107 % of control and the T/C (dose: 15.0 mg/kg/injection, schedule: Q01DX009 (ip), vehicle: saline) was 107 % of control.

For C[C@]12CCC(=O)C=C1CC[C@@H]1[C@@H]2[C@@H](O)C[C@@]2(C)[C@H]1CC[C@]2(O)C(=O)CO, the T/C (dose: 40.0 mg/kg/injection, schedule: Q02DX009 (ip), vehicle: Klucel (hydroxypropylcellulose) (HPC)) was 87 % of control, the T/C (dose: 80.0 mg/kg/injection, schedule: Q02DX009 (ip), vehicle: Klucel (hydroxypropylcellulose) (HPC)) was 102 % of control and the T/C (dose: 160.0 mg/kg/injection, schedule: Q02DX009 (ip), vehicle: Klucel (hydroxypropylcellulose) (HPC)) was 92 % of control.

With CCCCCCCCCCCCCCCCCC[n+]1cccc(C(=O)N2CCOCC2)c1 the T/C (dose: 2.0 mg/kg/injection, schedule: Q01DX009 (ip), vehicle: saline sonified) was 92 % of control, the T/C (dose: 4.0 mg/kg/injection, schedule: Q01DX009 (ip), vehicle: saline sonified) was 100 % of control and the T/C (dose: 8.0 mg/kg/injection, schedule: Q01DX009 (ip), vehicle: saline sonified) was 92 % of control. For the same compound, the T/C (dose: 16.0 mg/kg/injection, schedule: Q01DX009 (ip), vehicle: saline sonified) was 92 % of control.
